Laboratory results taken from ChEMBL document CHEMBL3217457, “Carbazolepyrrolo[2,1-c][1,4]benzodiazepine conjugates: design, synthesis, and biological evaluation” (Medchemcomm, 2011).
Activity calls are given as the source filed them. No cut-off for these calls is given here.

Key:
MCF7 [1] = assay: Cell cycle arrest in human MCF7 cells assessed as accumulation at G0/G1 phase at 4 uM after 24 hrs by propidium iodide staining based flow cytometry (reference value: 60.75%); format: functional
MCF7 [2] = assay: Cell cycle arrest in human MCF7 cells assessed as accumulation at G1 phase at 4 uM after 24 hrs by propidium iodide staining based flow cytometry (reference value: 57.98%); format: functional
MCF7 [3] = assay: Cell cycle arrest in human MCF7 cells assessed as accumulation at G0 phase at 4 uM after 24 hrs by propidium iodide staining based flow cytometry (reference value: 2.77%); format: functional
MCF7 [4] = assay: Cell cycle arrest in human MCF7 cells assessed as accumulation at S phase at 4 uM after 24 hrs by propidium iodide staining based flow cytometry (reference value: 14.30%); format: functional
MCF7 [5] = assay: Cell cycle arrest in human MCF7 cells assessed as accumulation at G2/M phase at 4 uM after 24 hrs by propidium iodide staining based flow cytometry (reference value: 24.95%); format: functional
PC-3 = assay: Growth inhibition of human PC3 cells; format: functional
KB = assay: Growth inhibition of human KB cells; format: functional
HOP-62 = assay: Growth inhibition of human HOP62 cells; format: functional
MCF7 [6] = assay: Growth inhibition of human MCF7 cells; format: functional
COLO 205 = assay: Growth inhibition of human COLO205 cells; format: functional
SiHa = assay: Growth inhibition of human SiHa cells; format: functional
A2780 = assay: Growth inhibition of human A2780 cells; format: functional
Calf thymus DNA = assay: Binding affinity to calf thymus DNA assessed as change in melting temperature at compound to DNA ratio of 1:5 after 18 hrs by thermal denaturation analysis; format: nucleic-acid assay; conditions: Bos taurus
A549 = assay: Growth inhibition of human A549 cells; format: functional
ZR-75-1 = assay: Growth inhibition of human ZR-75-1 cells; format: functional
SK-MEL-2 = assay: Growth inhibition of human SK-MEL-2 cells; format: functional
[7] = Growth inhibition of human SF539 cells; format: functional; conditions: SF-539
HCT-116 = assay: Growth inhibition of human HCT116 cells; format: functional
TK-10 = assay: Growth inhibition of human TK10 cells; format: functional
MCF7 [8] = assay: Cytotoxicity against human MCF7 cells assessed as decrease in cell viability at 2 to 16 uM after 6 to 48 hrs by MTT assay; format: functional, cell-based
[9] = Growth inhibition of human OVCAR5 cells; format: functional; conditions: OVCAR-5
SW-620 = assay: Growth inhibition of human SW620 cells; format: functional
[10] = Growth inhibition of human BT549 cells; format: functional; conditions: BT-549
[11] = Growth inhibition of human UO31 cells; format: functional; conditions: UO-31
NCI-H23 = assay: Growth inhibition of human NCI-H23 cells; format: functional
[12] = Growth inhibition of human HCC2998 cells; format: functional; conditions: HCC 2998
[13] = Growth inhibition of human Hs 578T cells; format: functional
MCF7 [14] = assay: Cytotoxicity against human MCF7 cells by ATP-dependent cell viability assay; format: functional, cell-based
IGROV-1 = assay: Growth inhibition of human IGROV1 cells; format: functional
DU-145 = assay: Growth inhibition of human DU145 cells; format: functional
NCI-H322M = assay: Growth inhibition of human NCI-H322M cells; format: functional
M14 = assay: Growth inhibition of human M14 cells; format: functional
786-0 = assay: Growth inhibition of human 786-0 cells; format: functional
[15] = Growth inhibition of human UACC62 cells; format: functional; conditions: UACC-62
[16] = Growth inhibition of human UACC257 cells; format: functional; conditions: UACC-257
A498 = assay: Growth inhibition of human A498 cells; format: functional
HL-60(TB) = assay: Growth inhibition of human HL-60(TB) cells; format: functional
SF-268 = assay: Growth inhibition of human SF268 cells; format: functional
MDA-MB-468 = assay: Growth inhibition of human MDA-MB-468 cells; format: functional
NCI-H522 = assay: Growth inhibition of human NCI-H522 cells; format: functional
[17] = Growth inhibition of human MDA-MB cells; format: functional
[18] = Growth inhibition of human OVCAR4 cells; format: functional; conditions: OVCAR-4
NCI-H226 = assay: Growth inhibition of human NCI-H226 cells; format: functional
SK-MEL-28 = assay: Growth inhibition of human SK-MEL-28 cells; format: functional
SNB-75 = assay: Growth inhibition of human SNB75 cells; format: functional
CAKI-1 = assay: Growth inhibition of human CAKI-1 cells; format: functional
MCF7 [19] = assay: Cytotoxicity against human MCF7 cells assessed as decrease in cell viability at 4 uM after 24 hrs by MTT assay; format: functional, cell-based
[20] = Growth inhibition of human RXF393 cells; format: functional; conditions: RXF 393
Malme-3M = assay: Growth inhibition of human MALME-3M cells; format: functional
[21] = Growth inhibition of human HCT15 cells; format: functional; conditions: HCT-15
SR = assay: Growth inhibition of human SR cells; format: functional
SNB-19 = assay: Growth inhibition of human SNB19 cells; format: functional
[22] = Growth inhibition of human MOLT4 cells; format: functional; conditions: MOLT-4
[23] = Growth inhibition of human HOP92 cells; format: functional; conditions: HOP-92
[24] = Growth inhibition of human Gurav cells; format: functional
HT-29 = assay: Growth inhibition of human HT-29 cells; format: functional
[25] = Growth inhibition of human LOXIMVI cells; format: functional; conditions: LOX IMVI
MCF7 [26] = assay: Antiproliferative activity against human MCF7 cells assessed as cell proliferation at 4 uM after 24 hrs by BrdU incorporation assay (reference value: 100%); format: functional; conditions: MCF7, 24 h, read-out: Activity
NCI-H460 = assay: Growth inhibition of human NCI-H460 cells; format: functional
KM12 = assay: Growth inhibition of human KM12 cells; format: functional
[27] = Growth inhibition of human EKVX cells; format: functional
T47D = assay: Growth inhibition of human T47D cells; format: functional
SK-MEL-5 = assay: Growth inhibition of human SK-MEL-5 cells; format: functional
[28] = Growth inhibition of human OVCAR3 cells; format: functional; conditions: OVCAR-3
ACHN = assay: Growth inhibition of human ACHN cells; format: functional
MDA-MB-435 = assay: Growth inhibition of human MDA-MB-435 cells; format: functional
SK-OV-3 = assay: Growth inhibition of human SKOV3 cells; format: functional
CCRF-CEM = assay: Growth inhibition of human CCRF-CEM cells; format: functional
U-251 = assay: Growth inhibition of human U251 cells; format: functional
SN12C = assay: Growth inhibition of human SN12C cells; format: functional

COc1ccc(-c2ccc3[nH]c4ccc(-c5ccc(OC)cc5)cc4c3c2)cc1
Activity (MCF7 [1]): 66.63% | Activity (MCF7 [2]): 62.24% | Activity (MCF7 [3]): 4.39% | Activity (MCF7 [4]): 11.84% | Activity (MCF7 [5]): 21.53%

COc1ccc(-c2ccc3c(c2)c2cc(-c4ccc(OC)cc4)ccc2n3CCCCOc2cc3c(cc2OC)C(=O)N2CCC[C@H]2C=N3)cc1
GI50 (PC-3): 160 nM | GI50 (KB): 190 nM | GI50 (HOP-62): 140 nM | Activity (MCF7 [1]): 67% | GI50 (MCF7 [6]): 150 nM | GI50 (COLO 205): 190 nM | GI50 (SiHa): 170 nM | Activity (MCF7 [2]): 62.6% | GI50 (A2780): 160 nM | ΔTm (Calf thymus DNA): 4.3 °C | Activity (MCF7 [3]): 4.4% | Activity (MCF7 [4]): 11.12% | GI50 (A549): 190 nM | Activity (MCF7 [5]): 21.88%

COc1cc2c(cc1OCCCN1CCN(CCCn3c4ccccc4c4ccccc43)CC1)N=C[C@@H]1CCCN1C2=O
GI50 (PC-3): 30 nM | GI50 (KB): 130 nM | GI50 (HOP-62): 80 nM | GI50 (ZR-75-1): 130 nM | GI50 (SK-MEL-2): 190 nM | Activity (MCF7 [1]): 86.6% | GI50 [7]: 120 nM | GI50 (HCT-116): 60 nM | GI50 (TK-10): 120 nM | inhibition (MCF7 [8]): Active | GI50 [9]: 30 nM | GI50 (SW-620): 40 nM | GI50 [10]: 130 nM | GI50 [11]: 120 nM | GI50 (NCI-H23): 260 nM | GI50 (MCF7 [6]): 40 nM | GI50 [12]: 130 nM | GI50 [13]: 160 nM | GI50 (COLO 205): 70 nM | inhibition (MCF7 [14]): Active | GI50 (IGROV-1): < 10 nM | GI50 (DU-145): 40 nM | GI50 (NCI-H322M): 250 nM | GI50 (M14): 150 nM | GI50 (786-0): 190 nM | GI50 [15]: 150 nM | GI50 [16]: 150 nM | GI50 (A498): 170 nM | GI50 (HL-60(TB)): 30 nM | GI50 (SF-268): 50 nM | GI50 (SiHa): 140 nM | GI50 (MDA-MB-468): 110 nM | GI50 (NCI-H522): < 10 nM | GI50 [17]: 950 nM | GI50 [18]: 100 nM | GI50 (NCI-H226): 130 nM | GI50 (SK-MEL-28): 60 nM | Activity (MCF7 [2]): 69.47% | GI50 (A2780): 120 nM | GI50 (SNB-75): 150 nM | GI50 (CAKI-1): 120 nM | inhibition (MCF7 [19]): Active | GI50 [20]: 220 nM | GI50 (Malme-3M): 150 nM | GI50 [21]: 280 nM | GI50 (SR): 30 nM | GI50 (SNB-19): 210 nM | GI50 [22]: 20 nM | ΔTm (Calf thymus DNA): 7 °C | GI50 [23]: 270 nM | GI50 [24]: 120 nM | GI50 (HT-29): 50 nM | GI50 [25]: 30 nM | growth at 4 µM (MCF7 [26]): 35.2% | GI50 (NCI-H460): 250 nM | GI50 (KM12): 150 nM | GI50 [27]: 140 nM | GI50 (T47D): 170 nM | Activity (MCF7 [3]): 17.13% | GI50 (SK-MEL-5): 230 nM | Activity (MCF7 [4]): 9.53% | GI50 [28]: 69 nM | GI50 (ACHN): 250 nM | GI50 (MDA-MB-435): 10 nM | GI50 (SK-OV-3): 290 nM | GI50 (CCRF-CEM): 20 nM | GI50 (A549): 140 nM | GI50 (U-251): 30 nM | GI50 (SN12C): 270 nM | Activity (MCF7 [5]): 3.87%

COc1cc2c(cc1OCCCCN1CCN(CCCCn3c4ccccc4c4ccccc43)CC1)N=C[C@@H]1CCCN1C2=O
GI50 (PC-3): 100 nM | GI50 (KB): 150 nM | GI50 (HOP-62): 80 nM | GI50 (ZR-75-1): 150 nM | GI50 (MCF7 [6]): 120 nM | GI50 (COLO 205): 160 nM | GI50 (SiHa): 150 nM | GI50 (A2780): 160 nM | ΔTm (Calf thymus DNA): 8.4 °C | GI50 [24]: 170 nM | GI50 (A549): 130 nM

COc1cc2c(cc1OCCCn1c3ccccc3c3ccccc31)N=C[C@@H]1CCCN1C2=O
GI50 (KB): 1870 nM | GI50 (HOP-62): 1930 nM | GI50 (ZR-75-1): 1890 nM | GI50 (MCF7 [6]): 1850 nM | GI50 (COLO 205): 1680 nM | GI50 (SiHa): 1700 nM | GI50 (A2780): 1210 nM | ΔTm (Calf thymus DNA): 4 °C | GI50 [24]: 1600 nM | GI50 (A549): 1840 nM

COc1cc2c(cc1OCCCCCCn1c3ccccc3c3ccccc31)N=C[C@@H]1CCCN1C2=O
GI50 (KB): 1950 nM | GI50 (HOP-62): 1580 nM | GI50 (ZR-75-1): 2140 nM | GI50 (MCF7 [6]): 1650 nM | GI50 (COLO 205): 1620 nM | GI50 (SiHa): 1580 nM | GI50 (A2780): 1700 nM | ΔTm (Calf thymus DNA): 4.7 °C | GI50 [24]: 1710 nM | GI50 (A549): 1500 nM

COc1cc2c(cc1OCCCCn1c3ccccc3c3ccccc31)N=C[C@@H]1CCCN1C2=O
GI50 (KB): 1870 nM | GI50 (HOP-62): 1930 nM | GI50 (ZR-75-1): 1810 nM | GI50 (MCF7 [6]): 2210 nM | GI50 (COLO 205): 1700 nM | GI50 (SiHa): 1700 nM | GI50 (A2780): 1570 nM | ΔTm (Calf thymus DNA): 3.5 °C | GI50 [24]: 1600 nM | GI50 (A549): 1920 nM
